{"source": "paper PMC12726774", "about": "“HAEEPGP Peptide Efficiently Prevents Alzheimer's Disease Pathology in Vivo” (Alzheimer's & Dementia, 2025)", "key": {"[1]": {"conditions": "125I labeled peptide", "text": "(§1) Abstract Background Currently, the only disease‐modifying therapy for Alzheimer's disease (AD) is monoclonal antibodies against beta‐amyloid (Aβ). […] Short peptides could be an alternative treatment to high‐molecular weight antibodies. They have been successfully tested against various neuropathologies. […] The disadvantage of short peptides is their rapid elimination from an organism. In this work, we added PGP amino acids to the HAEE C‐terminus to stabilize the peptide, studied the pharmacokinetics of HAEEPGP and its ability to suppress AD‐associated pathology. Method Direct interaction of HAEEPGP and Aβ peptides was measured by isothermal titration calorimetry. Pharmacokinetics and distribution to tissues of ^125I labeled HAEEPGP were studied after its intravenous injection in C57BL/6 or 5xFAD mice. HAEEPGP ability to prevent Aβ pathological effect on HMC3 microglial cells was assessed by flow cytometry and IL‐6 ELISA kit. HAEEPGP inhibition effect on AD pathology was studied in vivo using two animal models: transgenic C. elegans overexpressing human Aβ and 5xFAD mice. […] Supported by the Russian Science Foundation (grant #19‐74‐30007)."}, "[2]": {"test": "in vivo", "conditions": "mouse, plasma, iv", "text": "as §1"}, "[3]": {"biological_target": "Aβ (Homo sapiens, UniProt P05067)", "sequence (P05067 672-713 limits assumed)": "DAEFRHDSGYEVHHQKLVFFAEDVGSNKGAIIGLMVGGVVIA", "test": "Isothermal titration calorimetry, interaction of HAEEPGP with Aβ", "conditions": "read-out: Kd of binding to Aβ", "text": "as §1"}, "[4]": {"conditions": "background statement, no reference given; cited from earlier work", "text": "They have been successfully tested against various neuropathologies. […] The disadvantage ..."}}, "note": "Like-named read-outs stand apart in the source and are kept apart here. Residues, ends and D or L forms follow the SMILES beside them. No end group written: not given here."}
{"compound": "HAEEPGP [HAEEPGP]", "values": [{"measurement": "BBB crossing", "setting": "[1]; intravenous injection, mice", "result": "propitiously crossed BBB"}, {"measurement": "level in the mice brain over time", "setting": "[1]; during an hour post-injection, intravenous", "result": "constantly increased"}, {"measurement": "level in the brain, 5xFAD vs wild type mice", "setting": "[1]; intravenous, 5xFAD vs C57BL/6", "result": "higher in 5xFAD than in wild type mice"}, {"measurement": "half-life", "setting": "[2]", "result": "56 ± 12", "unit": "min"}, {"measurement": "Kd", "setting": "[3]", "result": 1640, "unit": "nM"}]}
{"compound": "C[C@H](NC(=O)[C@@H](N)Cc1c[nH]cn1)C(=O)N[C@@H](CCC(=O)O)C(=O)N[C@@H](CCC(=O)O)C(=O)O", "note": "[HAEE] (H-HAEE-OH)", "values": [{"measurement": "BBB crossing", "setting": "[4]", "result": "able to cross the BBB"}, {"measurement": "toxic effect in vivo", "setting": "[4]", "result": "no toxic effect"}, {"measurement": "half-life", "setting": "[2]", "result": 17, "unit": "min"}]}
